From US9446127B2, “Compositions including androgen receptor degradation (ARD) enhancers and methods of prophylactic or therapeutic treatment of skin disorders and hair loss” (AndroScience Corporation, priority 2007, dated 2016)

Assays:
sebaceous glands = test: Reduction of sebaceous glands in Fuzzy rats, topical cream; type: in vivo
Method: Topical creams were prepared as later described in EXAMPLE 12. […] The test or control creams were applied using a cotton swab to the dorsal skin of the animal, once daily, over a period of 8 weeks. Animals were then sacrificed and skin samples collected for microscopic examination. Commercial hair remover was applied to the dorsal surface of the euthanized animals. After 5 minutes, the hair remover and hairs were removed with a tissue. The area was thoroughly cleaned with 75% isopropyl alcohol. A 4-millimeter skin punch was used to remove skin tissue samples, which were incubated for 2 to 3 hours in a ethylenediaminetetraacetate (EDTA, 17 millimolar), sodium phosphate (0.1 molar, pH 7.4) solution at 37 degrees Celsius. The epidermis was carefully separated from the dermis and stored in 10% phosphate-buffered formalin. Prior to microscopic examination, the samples were mounted on glass slides. Areas of well-preserved glandular lobules were selected for microscopic imaging. Edges of the glandular lobes were traced and the areas of the traced lobes obtained with Image J software (National Institutes of Health).

androgen receptor (AR) = molecular target: T1, androgen receptor (AR) (Homo sapiens, UniProt P10275, T878A); test: Specificity Western blot in LNCaP cell lysates, AR; type: cell-based; details: 1 or 5 micromolar, 24 hours, presence or absence of DHT
T1 construct: endogenous in cells; host or cells: LNCaP
T1 sequence (P10275 1-920 T878A): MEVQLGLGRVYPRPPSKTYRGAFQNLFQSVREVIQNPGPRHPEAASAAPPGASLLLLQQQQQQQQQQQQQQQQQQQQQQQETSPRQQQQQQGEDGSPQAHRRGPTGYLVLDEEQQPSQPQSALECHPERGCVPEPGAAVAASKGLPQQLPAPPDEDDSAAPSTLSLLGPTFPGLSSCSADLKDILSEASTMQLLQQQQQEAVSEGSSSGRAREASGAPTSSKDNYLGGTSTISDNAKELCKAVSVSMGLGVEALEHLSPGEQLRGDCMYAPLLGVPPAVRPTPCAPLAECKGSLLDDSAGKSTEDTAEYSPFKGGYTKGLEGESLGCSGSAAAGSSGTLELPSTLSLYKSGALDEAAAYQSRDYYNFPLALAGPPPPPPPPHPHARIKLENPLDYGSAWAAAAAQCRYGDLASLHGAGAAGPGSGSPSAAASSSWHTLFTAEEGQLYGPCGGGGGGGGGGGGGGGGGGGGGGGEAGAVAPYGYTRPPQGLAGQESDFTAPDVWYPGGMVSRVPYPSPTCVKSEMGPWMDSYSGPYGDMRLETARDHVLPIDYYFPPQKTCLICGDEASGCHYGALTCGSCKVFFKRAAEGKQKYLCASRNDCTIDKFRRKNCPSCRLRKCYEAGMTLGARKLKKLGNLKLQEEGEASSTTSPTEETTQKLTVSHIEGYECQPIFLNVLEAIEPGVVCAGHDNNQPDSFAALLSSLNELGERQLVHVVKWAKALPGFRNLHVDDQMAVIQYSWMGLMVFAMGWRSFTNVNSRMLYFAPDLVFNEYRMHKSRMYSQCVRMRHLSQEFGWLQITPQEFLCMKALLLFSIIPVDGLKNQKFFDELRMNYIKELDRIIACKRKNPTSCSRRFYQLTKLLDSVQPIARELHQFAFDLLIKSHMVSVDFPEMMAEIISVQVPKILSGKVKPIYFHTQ
Method: Human prostate cancer LNCaP cells and T47D cells were plated at a density of 7×10^5 cells per 60 millimeter tissue culture dish in […] medium containing 10% FBS. The medium was changed to RPMI or DME medium containing 10% charcoal-stripped serum 24 hours later to deplete cellular androgens or estrogens. After another 24 hours, treatment with the test compounds began. The test dose of ASC-J9 was 1, and 5 and micromolar. LNCap cells also received dihydrotestosterone (DHT) (3 nanomolar). Control cells received a corresponding amount of the vehicle, dimethylsulfoxide (DMSO) (<0.04%) for an equivalent exposure time. Cells were incubated with ASC-J9 for 24 hours, and were lysed in 250 microliters of 1×SDS/PAGE loading buffer. Approximately 40 micrograms of total cellular protein was loaded in each lane of a pre-cast gel (NuPAGE, Invitrogen). Protein separation and transfer were performed following the manufacturer's instructions.
For the LNCaP cell lysates, androgen receptor (AR) protein was visualized by incubating the resultant membranes with an anti-AR antibody (BD-PharMingen), followed by chemiluminescence detection (ECL Plus, Amersham). […] The resultant protein signals were quantified using densitometry and NIH ImageJ software.

[1] = test system: testosterone-induced hair growth suppression; test: Testosterone-induced alopecia model, hair re-growth; type: in vivo, C57BL/6J mice; details: testosterone mornings
Method: C57BL/6J mice were used in this animal model for hair loss and regrowth (Uno et al. (1990) J. Cutaneous Aging & Cosm. Derm., 1:193, which is incorporated by reference in its entirety herein). Six-week-old male mice (6 to 7 animals per group) were shaved with an electric clipper, and then treated with a hair-removal cream for 1 to 2 minutes. […] One day after hair removal, a first group of animals each received 100 microliters of a 1% testosterone solution in ethanol, applied topically to the shaved area, once each morning for twenty consecutive days. A second group of animals each received 100 microliters of vehicle (ethanol) alone, applied topically to the shaved area, once each morning for twenty consecutive days. The first group of mice (testosterone-treated) were divided further into a control group and a treatment group. Also beginning one day after hair removal, each mouse in the control group received 100 microliters of a control solution (60% ethanol, 20% propylene glycol, and 20% water) and each mouse in the treatment group received 100 microliters of the test compound, ASC-J9 (0.02% in the same 60% ethanol, 20% propylene glycol, and 20% water solution), applied topically to the shaved area, once each afternoon for twenty consecutive days. Hair re-growth in the shaved areas was observed and photographed at 0, 4, 8, 11 and 14 days after beginning of the topical treatments.

COc1ccc(C=CC(=O)C=C(O)C=Cc2ccc(OC)c(OC)c2)cc1OC [ASC-J9, 5-hydroxy-1,7-bis(3,4-dimethoxyphenyl)-1,4,6-heptatrien-3-one]
size of ducts of sebaceous glands (sebaceous glands; male Fuzzy rats, topical (FIG. 10E), comparable to castration, better than flutamide): significantly reduced the size of ducts
size of the sebaceous gland (sebaceous glands; male rats, topical, 200 μM (FIG. 10A-C), not to the extent caused by castration): significant reduction in the size of the sebaceous gland
time to reduction of brown skin color and bands of sebaceous glands (sebaceous glands; topical cream 25 micromolar, once daily): 4-5 weeks
size of the sebaceous glandular lobe (sebaceous glands; topical, various concentrations (FIG. 10D), less than castration, better than flutamide): significant reduction in the size of the sebaceous glandular lobe
cellular concentration of AR (androgen receptor (AR)): significantly decreased
hair re-growth in shaved areas ([1]; 0.02% topical afternoons, day 8 to day 17): rapid re-growth of hair
hair re-growth in shaved areas ([1]; topical afternoons, after 20 days): fully re-growth of hair
